{"source": "PubChem BioAssay (NCI)", "assay_in_all_cases": "NCI tumour cell line growth inhibition, 48 h", "key": {"SW-620 colon": {"tested_on": "SW-620 colon"}, "SF-539 CNS": {"tested_on": "SF-539 CNS"}, "A549 NSCLC": {"tested_on": "A549 NSCLC"}, "SK-MEL-28 melanoma": {"tested_on": "SK-MEL-28 melanoma"}, "A498 renal": {"tested_on": "A498 renal"}, "MCF7 breast": {"tested_on": "MCF7 breast"}, "MDA-N": {"tested_on": "MDA-N"}, "SK-OV-3 ovarian": {"tested_on": "SK-OV-3 ovarian"}, "OVCAR-8 ovarian": {"tested_on": "OVCAR-8 ovarian"}, "EKVX NSCLC": {"tested_on": "EKVX NSCLC"}, "HL-60(TB) leukemia": {"tested_on": "HL-60(TB) leukemia"}, "HT29 colon": {"tested_on": "HT29 colon"}, "UACC-257 melanoma": {"tested_on": "UACC-257 melanoma"}, "MALME-3M melanoma": {"tested_on": "MALME-3M melanoma"}, "SF-268 CNS": {"tested_on": "SF-268 CNS"}, "RXF 393 renal": {"tested_on": "RXF 393 renal"}, "MDA-MB-231 breast": {"tested_on": "MDA-MB-231 breast"}, "TK-10 renal": {"tested_on": "TK-10 renal"}, "ACHN renal": {"tested_on": "ACHN renal"}, "PC-3 prostate": {"tested_on": "PC-3 prostate"}, "OVCAR-5 ovarian": {"tested_on": "OVCAR-5 ovarian"}, "K-562 leukemia": {"tested_on": "K-562 leukemia"}, "U251 CNS": {"tested_on": "U251 CNS"}, "M14 melanoma": {"tested_on": "M14 melanoma"}, "NCI/ADR-RES ovarian": {"tested_on": "NCI/ADR-RES ovarian"}, "HCC-2998 colon": {"tested_on": "HCC-2998 colon"}, "NCI-H460 lung": {"tested_on": "NCI-H460 lung"}, "UO-31 renal": {"tested_on": "UO-31 renal"}, "DU-145 prostate": {"tested_on": "DU-145 prostate"}, "HOP-92 NSCLC": {"tested_on": "HOP-92 NSCLC"}, "KM12 colon": {"tested_on": "KM12 colon"}, "CAKI-1 renal": {"tested_on": "CAKI-1 renal"}, "LOX IMVI melanoma": {"tested_on": "LOX IMVI melanoma"}, "COLO 205 colon": {"tested_on": "COLO 205 colon"}, "IGROV1 ovarian": {"tested_on": "IGROV1 ovarian"}, "CCRF-CEM leukemia": {"tested_on": "CCRF-CEM leukemia"}, "NCI-H23 lung": {"tested_on": "NCI-H23 lung"}, "SK-MEL-2 melanoma": {"tested_on": "SK-MEL-2 melanoma"}, "UACC-62 melanoma": {"tested_on": "UACC-62 melanoma"}, "786-0 renal": {"tested_on": "786-0 renal"}, "SK-MEL-5 melanoma": {"tested_on": "SK-MEL-5 melanoma"}, "HCT-116 colon": {"tested_on": "HCT-116 colon"}, "HS 578T breast": {"tested_on": "HS 578T breast"}, "T-47D breast": {"tested_on": "T-47D breast"}, "HCT-15 colon": {"tested_on": "HCT-15 colon"}, "NCI-H226 lung": {"tested_on": "NCI-H226 lung"}, "BT-549 breast": {"tested_on": "BT-549 breast"}, "SN12C renal": {"tested_on": "SN12C renal"}, "SNB-19 CNS": {"tested_on": "SNB-19 CNS"}, "SNB-75 CNS": {"tested_on": "SNB-75 CNS"}, "SF-295 CNS": {"tested_on": "SF-295 CNS"}, "MOLT-4 leukemia": {"tested_on": "MOLT-4 leukemia"}, "OVCAR-3 ovarian": {"tested_on": "OVCAR-3 ovarian"}}, "note": "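Growth conditions: 96-well plates. Treatment: test compound, 48 hours, 5 concentrations. Analysis: linear interpolation between bracketing concentrations; unreached endpoints set to highest concentration. The concentration for full growth arrest is given as TGI.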"}
{"compound": "CC1C2(C)OC(=N)C(C#N)(C(c3ccco3)O2)C1(C#N)C#N", "note": "(stereo not drawn)", "values": [{"measurement": "TGI", "setting": "SW-620 colon", "value": 40.4, "unit": "µM"}, {"measurement": "TGI", "setting": "SF-539 CNS", "value": 35.9, "unit": "µM"}, {"measurement": "TGI", "setting": "A549 NSCLC", "value": "> 100", "unit": "µM"}, {"measurement": "TGI", "setting": "SK-MEL-28 melanoma", "value": 46.2, "unit": "µM"}, {"measurement": "TGI", "setting": "A498 renal", "value": "> 100", "unit": "µM"}, {"measurement": "TGI", "setting": "MCF7 breast", "value": 51.4, "unit": "µM"}, {"measurement": "TGI", "setting": "MDA-N", "value": 43, "unit": "µM"}, {"measurement": "TGI", "setting": "SK-OV-3 ovarian", "value": "> 100", "unit": "µM"}, {"measurement": "TGI", "setting": "OVCAR-8 ovarian", "value": "> 100", "unit": "µM"}, {"measurement": "TGI", "setting": "EKVX NSCLC", "value": "> 100", "unit": "µM"}, {"measurement": "TGI", "setting": "HL-60(TB) leukemia", "value": 48.3, "unit": "µM"}, {"measurement": "TGI", "setting": "HT29 colon", "value": "> 100", "unit": "µM"}, {"measurement": "TGI", "setting": "UACC-257 melanoma", "value": 51.9, "unit": "µM"}, {"measurement": "TGI", "setting": "MALME-3M melanoma", "value": 88.7, "unit": "µM"}, {"measurement": "TGI", "setting": "SF-268 CNS", "value": "> 100", "unit": "µM"}, {"measurement": "TGI", "setting": "RXF 393 renal", "value": 51.4, "unit": "µM"}, {"measurement": "TGI", "setting": "MDA-MB-231 breast", "value": 39.5, "unit": "µM"}, {"measurement": "TGI", "setting": "TK-10 renal", "value": "> 100", "unit": "µM"}, {"measurement": "TGI", "setting": "ACHN renal", "value": "> 100", "unit": "µM"}, {"measurement": "TGI", "setting": "PC-3 prostate", "value": "> 100", "unit": "µM"}, {"measurement": "TGI", "setting": "OVCAR-5 ovarian", "value": 83.6, "unit": "µM"}, {"measurement": "TGI", "setting": "K-562 leukemia", "value": "> 100", "unit": "µM"}, {"measurement": "TGI", "setting": "U251 CNS", "value": 51.5, "unit": "µM"}, {"measurement": "TGI", "setting": "M14 melanoma", "value": 35.9, "unit": "µM"}, {"measurement": "TGI", "setting": "NCI/ADR-RES ovarian", "value": "> 100", "unit": "µM"}, {"measurement": "TGI", "setting": "HCC-2998 colon", "value": 55.5, "unit": "µM"}, {"measurement": "TGI", "setting": "NCI-H460 lung", "value": 44.6, "unit": "µM"}, {"measurement": "TGI", "setting": "UO-31 renal", "value": "> 100", "unit": "µM"}, {"measurement": "TGI", "setting": "DU-145 prostate", "value": "> 100", "unit": "µM"}, {"measurement": "TGI", "setting": "HOP-92 NSCLC", "value": 47.3, "unit": "µM"}, {"measurement": "TGI", "setting": "KM12 colon", "value": "> 100", "unit": "µM"}, {"measurement": "TGI", "setting": "CAKI-1 renal", "value": 27.4, "unit": "µM"}, {"measurement": "TGI", "setting": "LOX IMVI melanoma", "value": 40.5, "unit": "µM"}, {"measurement": "TGI", "setting": "COLO 205 colon", "value": 27.7, "unit": "µM"}, {"measurement": "TGI", "setting": "IGROV1 ovarian", "value": "> 100", "unit": "µM"}, {"measurement": "TGI", "setting": "CCRF-CEM leukemia", "value": 84.4, "unit": "µM"}, {"measurement": "TGI", "setting": "NCI-H23 lung", "value": 93.6, "unit": "µM"}, {"measurement": "TGI", "setting": "SK-MEL-2 melanoma", "value": 75.9, "unit": "µM"}, {"measurement": "TGI", "setting": "UACC-62 melanoma", "value": 36.8, "unit": "µM"}, {"measurement": "TGI", "setting": "786-0 renal", "value": 49.5, "unit": "µM"}, {"measurement": "TGI", "setting": "SK-MEL-5 melanoma", "value": 28.1, "unit": "µM"}, {"measurement": "TGI", "setting": "HCT-116 colon", "value": 67.1, "unit": "µM"}, {"measurement": "TGI", "setting": "HS 578T breast", "value": 80.8, "unit": "µM"}, {"measurement": "TGI", "setting": "T-47D breast", "value": 45.9, "unit": "µM"}, {"measurement": "TGI", "setting": "HCT-15 colon", "value": 25, "unit": "µM"}, {"measurement": "TGI", "setting": "NCI-H226 lung", "value": "> 100", "unit": "µM"}, {"measurement": "TGI", "setting": "BT-549 breast", "value": "> 100", "unit": "µM"}, {"measurement": "TGI", "setting": "SN12C renal", "value": 30.4, "unit": "µM"}, {"measurement": "TGI", "setting": "SNB-19 CNS", "value": "> 100", "unit": "µM"}, {"measurement": "TGI", "setting": "SNB-75 CNS", "value": "> 100", "unit": "µM"}, {"measurement": "TGI", "setting": "SF-295 CNS", "value": "> 100", "unit": "µM"}, {"measurement": "TGI", "setting": "MOLT-4 leukemia", "value": "> 100", "unit": "µM"}, {"measurement": "TGI", "setting": "OVCAR-3 ovarian", "value": 47.9, "unit": "µM"}]}
